How the values were obtained:
system Xc^− [1] = target: T1, system Xc^− (Homo sapiens, UniProt Q9UPY5); assay: [^14C]L-Cystine uptake assay; assay type: cell-based; design: endogenous in cells; host or cells: H4 cells; settings: H4 cells, sodium-free HEPES buffer, 0.5 μM L-[14C]Cystine and 4.5 μM L-Cystine, 1 hour at 37° C.; read-out: pIC50 [^14C] L-Cystine uptake assay (converted)
T1 sequence (Q9UPY5 1-501): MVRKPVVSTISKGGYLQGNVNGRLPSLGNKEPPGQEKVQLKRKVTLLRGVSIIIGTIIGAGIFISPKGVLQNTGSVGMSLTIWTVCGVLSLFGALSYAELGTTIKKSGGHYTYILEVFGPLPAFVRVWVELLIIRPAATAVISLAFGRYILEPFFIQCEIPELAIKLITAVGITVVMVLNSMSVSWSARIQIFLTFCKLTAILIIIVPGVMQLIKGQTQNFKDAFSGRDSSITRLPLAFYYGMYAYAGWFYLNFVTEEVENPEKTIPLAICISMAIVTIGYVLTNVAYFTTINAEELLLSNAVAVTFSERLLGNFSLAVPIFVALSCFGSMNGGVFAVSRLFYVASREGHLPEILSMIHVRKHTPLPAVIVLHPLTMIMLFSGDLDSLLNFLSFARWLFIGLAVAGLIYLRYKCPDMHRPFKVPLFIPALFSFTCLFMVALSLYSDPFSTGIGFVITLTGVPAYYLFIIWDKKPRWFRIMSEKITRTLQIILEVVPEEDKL
T1 sequence (P08195 1-529 partner): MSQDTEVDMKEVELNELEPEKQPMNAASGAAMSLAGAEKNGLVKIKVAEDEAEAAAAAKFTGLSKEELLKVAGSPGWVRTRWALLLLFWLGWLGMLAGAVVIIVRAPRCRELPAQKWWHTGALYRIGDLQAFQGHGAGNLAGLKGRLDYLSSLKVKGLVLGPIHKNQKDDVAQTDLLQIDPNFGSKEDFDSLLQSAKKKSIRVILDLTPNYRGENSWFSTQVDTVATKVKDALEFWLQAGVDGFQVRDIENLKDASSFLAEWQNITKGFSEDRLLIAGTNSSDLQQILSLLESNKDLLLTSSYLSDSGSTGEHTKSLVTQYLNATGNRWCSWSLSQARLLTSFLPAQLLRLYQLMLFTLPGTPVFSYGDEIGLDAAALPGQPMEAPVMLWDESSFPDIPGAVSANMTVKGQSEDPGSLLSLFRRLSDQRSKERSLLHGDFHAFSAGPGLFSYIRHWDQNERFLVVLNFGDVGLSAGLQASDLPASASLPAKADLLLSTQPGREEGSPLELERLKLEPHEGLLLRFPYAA
In short: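 Compound effect is given as pIC50, taken between controls of 1% DMSO and 50 μM Erastin. Human H4 cells were pretreated 15 min with compound in sodium-free buffer, then took up 0.5 μM [14C]cystine with 4.5 μM cold cystine for 1 hour at 37° C, read by scintillation proximity counting.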

system Xc^− [2] = target: T1, system Xc^−; assay: Cystine-induced glutamate release assay; assay type: cell-based; design: endogenous in cells; host or cells: H4 cells; settings: H4 cells, sodium-free HEPES buffer, 50 μM L-Cystine, 2 hours, Amplex Red glutamate readout; read-out: pIC50 Cystine-induced glutamate release assay (converted)
In short: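 IC50 (reported as pIC50) normalized to DMSO 1% and Erastin 50 μM controls, from Amplex Red fluorescence of glutamate exported into supernatant. H4 cells were washed into sodium-free buffer to exclude EAAT transport, then given compound with 50 μM L-cystine for 2 h in the incubator.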

| IC50 (system Xc^− [1]) | IC50 (system Xc^− [2]) | Structure (SMILES) |
| --- | --- | --- |
| < 15.8 nM | 15.8 to 39.8 nM | Cc1cc2c(n(C)c1=O)-c1ccc(Cl)cc1C(C)C(=O)N2CC(=O)Nc1ccc(Cl)c(F)c1 (stereo not shown) [#181, N-(4-chloro-3-fluoro-phenyl)-2-(9-chloro-1,3,7-trimethyl-2,6-dioxo-7H-pyrido[3,2-d][3]benzazepin-5-yl)acetamide] |
| 15.8 to 39.8 nM | 15.8 to 39.8 nM | COc1cc2c(c(F)n1)-c1cccnc1C(C)C(=O)N2CC(=O)Nc1ccc(C(F)(F)F)cc1 (stereo not shown) [#182, 2-(3-fluoro-5-methoxy-10-methyl-9-oxo-4,8,12-triazatricyclo[9.4.0.0^2,7]pentadeca-1(11),2(7),3,5,12,14-hexaen-8-yl)-N-[4-(trifluoromethyl)phenyl]acetamide] |
| 39.8 to 100 nM | 100 to 501 nM | Cc1cc2c(c(F)n1)-c1cc[nH]c(=O)c1CC(=O)N2CC(=O)Nc1ccc(C(F)(F)F)cc1 [#183, 2-(3-fluoro-5-methyl-9,12-dioxo-4,8,13-triazatricyclo[9.4.0.0^2,7]pentadeca-1(11),2(7),3,5,14-pentaen-8-yl)-N-[4-(trifluoromethyl)phenyl]acetamide] |
| 39.8 to 100 nM | 39.8 to 100 nM | CC1C(=O)N(CC(=O)Nc2ccc(C(F)(F)F)cc2)c2cc(F)c(=O)n(C)c2-c2cccnc21 (stereo not shown) [#185, 2-(5-fluoro-3,10-dimethyl-4,9-dioxo-3,8,12-triazatricyclo[9.4.0.0^2,7]pentadeca-1(11),2(7),5,12,14-pentaen-8-yl)-N-[4-(trifluoromethyl)phenyl]acetamide] |
| 15.8 to 39.8 nM | 100 to 501 nM | Cc1cc2c(c(F)n1)-c1cncc(F)c1CC(=O)N2CC(=O)Nc1ccc(C(F)(F)F)cc1 [#212, 2-(3,12-difluoro-5-methyl-9-oxo-4,8,14-triazatricyclo[9.4.0.0^2,7]pentadeca-1(11),2(7),3,5,12,14-hexaen-8-yl)-N-[4-(trifluoromethyl)phenyl]acetamide] |
| 15.8 to 39.8 nM | 39.8 to 100 nM | Cc1cc2c(c(F)n1)-c1cccnc1[C@@H](C)C(=O)N2CC(=O)Nc1ccc(F)cc1 [#233, 2-[(10R)-3-fluoro-5,10-dimethyl-9-oxo-4,8,12-triazatricyclo[9.4.0.0^2,7]pentadeca-1(15),2,4,6,11,13-hexaen-8-yl]-N-(4-fluorophenyl)acetamide] |
| 39.8 to 100 nM | 15.8 to 39.8 nM | Cc1cc2c(c(F)n1)-c1cccnc1[C@@H](C)C(=O)N2CC(=O)Nc1ccc2c(c1)CC(F)(F)C2 [#237, N-(2,2-difluoroindan-5-yl)-2-[(10R)-3-fluoro-5,10-dimethyl-9-oxo-4,8,12-triazatricyclo[9.4.0.0^2,7]pentadeca-1(15),2,4,6,11,13-hexaen-8-yl]acetamide] |
| 39.8 to 100 nM | 39.8 to 100 nM | Cc1cc2c(c(F)n1)-c1cccnc1[C@@H](C)C(=O)N2CC(=O)Nc1ccc2c(c1)OC(F)(F)O2 [#238, N-(2,2-difluoro-1,3-benzodioxol-5-yl)-2-[(10R)-3-fluoro-5,10-dimethyl-9-oxo-4,8,12-triazatricyclo[9.4.0.0^2,7]pentadeca-1(15),2,4,6,11,13-hexaen-8-yl]acetamide] |
| 15.8 to 39.8 nM | < 15.8 nM | Cc1cc2c(c(F)n1)-c1cccnc1[C@@H](C)C(=O)N2CC(=O)Nc1ccc(F)c(Cl)c1 [#241, N-(3-chloro-4-fluoro-phenyl)-2-[(10R)-3-fluoro-5,10-dimethyl-9-oxo-4,8,12-triazatricyclo[9.4.0.0^2,7]pentadeca-1(15),2,4,6,11,13-hexaen-8-yl]acetamide] |
| 39.8 to 100 nM | 15.8 to 39.8 nM | Cc1cc2c(c(F)n1)-c1cccnc1[C@@H](C)C(=O)N2CC(=O)Nc1ccc(Cl)cc1F [#242, N-(4-chloro-2-fluoro-phenyl)-2-[(10R)-3-fluoro-5,10-dimethyl-9-oxo-4,8,12-triazatricyclo[9.4.0.0^2,7]pentadeca-1(15),2,4,6,11,13-hexaen-8-yl]acetamide] |
| 39.8 to 100 nM | 15.8 to 39.8 nM | Cc1cc2c(c(F)n1)-c1cccnc1[C@@H](C)C(=O)N2CC(=O)Nc1csc(Cl)c1 [#243, N-(5-chloro-3-thienyl)-2-[(10R)-3-fluoro-5,10-dimethyl-9-oxo-4,8,12-triazatricyclo[9.4.0.0^2,7]pentadeca-1(11),2(7),3,5,12,14-hexaen-8-yl]acetamide] |
| 15.8 to 39.8 nM | 15.8 to 39.8 nM | Cc1cc2c(c(F)n1)-c1cccnc1[C@@H](C)C(=O)N2CC(=O)Nc1ccc(C(C)C)c(F)c1 [#244, 2-[(10R)-3-fluoro-5,10-dimethyl-9-oxo-4,8,12-triazatricyclo[9.4.0.0^2,7]pentadeca-1(11),2(7),3,5,12,14-hexaen-8-yl]-N-(3-fluoro-4-isopropyl-phenyl)acetamide] |
| < 15.8 nM | < 15.8 nM | Cc1cc2c(c(F)n1)-c1cccnc1[C@@H](C)C(=O)N2CC(=O)Nc1ccc(C2(F)CC2)cc1 [#246, N-[4-(1-fluorocyclopropyl)phenyl]-2-[(10R)-3-fluoro-5,10-dimethyl-9-oxo-4,8,12-triazatricyclo[9.4.0.0^2,7]pentadeca-1(11),2(7),3,5,12,14-hexaen-8-yl]acetamide] |
| 39.8 to 100 nM | 39.8 to 100 nM | Cc1cc2c(c(F)n1)-c1cccnc1[C@@H](C)C(=O)N2CC(=O)Nc1ccc(C(F)(F)F)cc1F [#247, 2-[(10R)-3-fluoro-5,10-dimethyl-9-oxo-4,8,12-triazatricyclo[9.4.0.0^2,7]pentadeca-1(11),2(7),3,5,12,14-hexaen-8-yl)-N-[2-fluoro-4-(trifluoromethyl)phenyl]acetamide] |
| < 15.8 nM | < 15.8 nM | Cc1cc2c(c(F)n1)-c1cccnc1[C@@H](C)C(=O)N2CC(=O)Nc1ccc(C2(F)CC2)c(F)c1 [#248, 2-[(10R)-3-fluoro-5,10-dimethyl-9-oxo-4,8,12-triazatricyclo[9.4.0.0^2,7]pentadeca-1(11),2(7),3,5,12,14-hexaen-8-yl]-N-[3-fluoro-4-(1-fluorocyclopropyl)phenyl]acetamide] |
| 100 to 501 nM | 39.8 to 100 nM | Cc1cc2c(c(F)n1)-c1cccnc1[C@@H](C)C(=O)N2CC(=O)Nc1ccc(Cl)c(F)c1F [#249, N-(4-chloro-2,3-difluoro-phenyl)-2-[(10R)-3-fluoro-5,10-dimethyl-9-oxo-4,8,12-triazatricyclo[9.4.0.0^2,7]pentadeca-1(15),2,4,6,11,13-hexaen-8-yl]acetamide] |
| < 15.8 nM | < 15.8 nM | Cc1cc2c(c(=O)n1C)-c1cccnc1C(C)C(=O)N2CC(=O)Nc1ccc(Cl)c(F)c1 (stereo not shown) [#254, N-(4-chloro-3-fluoro-phenyl)-2-(4,5,10-trimethyl-3,9-dioxo-4,8,12-triazatricyclo[9.4.0.0^2,7]pentadeca-1(15),2(7),5,11,13-pentaen-8-yl)acetamide] |
| < 15.8 nM | < 15.8 nM | Cc1cc2c(c(=O)n1C)-c1ccc(F)cc1C(C)C(=O)N2CC(=O)Nc1ccc(C(F)F)cc1 (stereo not shown) [#256, N-[4-(difluoromethyl)phenyl]-2-(9-fluoro-2,3,7-trimethyl-1,6-dioxo-7H-pyrido[4,3-d][3]benzazepin-5-yl)acetamide] |
| < 15.8 nM | 15.8 to 39.8 nM | COCCN(C)c1cc2c(c(F)n1)-c1cccnc1C(C)C(=O)N2CC(=O)Nc1ccc(Cl)c(F)c1 (stereo not shown) [#264, N-(4-chloro-3-fluoro-phenyl)-2-[3-fluoro-5-[2-methoxyethyl(methyl)amino]-10-methyl-9-oxo-4,8,12-triazatricyclo[9.4.0.0^2,7]pentadeca-1(15),2(7),3,5,11,13-hexaen-8-yl]acetamide] |
| < 15.8 nM | 15.8 to 39.8 nM | CC1C(=O)N(CC(=O)Nc2ccc(C(F)F)cc2)c2cc(N3CCOCC3)nc(F)c2-c2cccnc21 (stereo not shown) [#271, N-[4-(difluoromethyl)phenyl]-2-(3-fluoro-10-methyl-5-morpholino-9-oxo-4.8,12-triazatricyclo[9.4.0.0^2,7]pentadeca-1(15),2,4,6,11,13-hexaen-8-yl)acetamide] |

Reference: patent US20260217708A1, “FUSED BENZAZEPINE DERIVATIVES FOR USE IN THE TREATMENT OF CANCER AND EPILEPSY” (UCB BIOPHARMA SRL, priority 2023, published 2026)
